Starred links: 1 amine or outer side, 2 acyl side, 3 side chain; linkers in the order of their positions; H or OH if unused. Positions of bridges follow the written chain, without caps; N, C: chain ends. Non-standard residues stand in square brackets, D forms with d. Residues, ends and D or L forms follow the SMILES beside them. ξ: configuration not given here. *: point of attachment. X39 = Cn1nc(C(=O)NCc2ccc(-c3ccc(C[C@H](N[*:1])C(=O)[*:2])cc3)cc2)c2ccccc21; X5 = Cn1nc(C(=O)Nc2ccc(-c3ccc(C[C@H](N[*:1])C(=O)[*:2])cc3)cc2)c2ccccc21; X47 = O=C(Nc1ccc(-c2ccc(C[C@H](N[*:1])C(=O)[*:2])cc2)cc1)c1coc2ccccc12; Bip(4'-NH) = O=C([C@H](Cc1ccc(-c2ccc(N[*:3])cc2)cc1)N[*:1])[*:2]; Bip(4'-CONHMe) = CNC(=O)c1ccc(-c2ccc(C[C@H](N)C(=O)O)cc2)cc1; Indazole3carbonyl(1-CH2COOH) = O=C(O)Cn1nc(C(=O)*)c2ccccc21; Bip(4'-COOH) = N[C@@H](Cc1ccc(-c2ccc(C(=O)O)cc2)cc1)C(=O)O; X70 = O=C([C@H](Cc1ccc(-c2ccc(CN[*:3])cc2)cc1)N[*:1])[*:2]; X27 = N=C(NCCC[C@@H](N[*:1])C(=O)[*:2])NCCc1ccc2c(c1)OCO2; X18 = N=C(NCCC[C@@H](N[*:1])C(=O)[*:2])NCCc1ccc(O)cc1; X35 = N=C(NCCC[C@@H](N[*:1])C(=O)[*:2])NCCc1ccc(N)cc1; X4 = N=C(NCCCc1cccc(N)c1)NCCC[C@@H](N[*:1])C(=O)[*:2]; X58 = N=C(NCCC[C@@H](N[*:1])C(=O)[*:2])NCCc1cccc(N)c1; Ala(imidazol-2-yl) = N[C@@H](Cc1ncc[nH]1)C(=O)O; Ala(morpholin-4-yl) = N[C@@H](CN1CCOCC1)C(=O)O; Benzoyl(3-OCH2COOH) = O=C(O)COc1cccc(C(=O)*)c1; Benzoyl(4-OCH2COOH) = O=C(O)COc1ccc(C(=O)*)cc1; Bip = N[C@@H](Cc1ccc(-c2ccccc2)cc1)C(=O)O; X86 = O=C(O)Cn1ccc2cc(C(=O)*)ccc21; Cha = N[C@@H](CC1CCCCC1)C(=O)O; ξP = O=C(O)C1CCCN1; Sar = CNCC(=O)O
biological target: TNFα (Homo sapiens, UniProt P01375); test: TNF-Induced HEK-Blue Assay; type: cell-based; conditions: not given
Sequence (P01375 77-233 limits assumed): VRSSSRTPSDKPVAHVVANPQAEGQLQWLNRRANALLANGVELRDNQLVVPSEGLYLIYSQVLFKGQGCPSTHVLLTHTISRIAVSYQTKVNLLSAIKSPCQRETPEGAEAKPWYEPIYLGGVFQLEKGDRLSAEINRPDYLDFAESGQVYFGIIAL

Structure (SMILES) | IC50 [nM]
CC(C)C[C@@H]1NC(=O)[C@H](CCCNC(=N)N)NC(=O)[C@H](C(C)C)NC(=O)[C@@H]2CCCN2C(=O)[C@H](C(C)C)NC(=O)[C@@H](CCCNC(=N)NCCc2ccc(O)cc2)NC(=O)[C@H](CC(=O)O)NC(=O)[C@@H]2CCCN2C(=O)CN(C)C(=O)[C@H](Cc2ccc(-c3ccc(NC(=O)c4nn(CC(=O)O)c5ccccc45)cc3)cc2)NC(=O)[C@H](Cc2ccc(-c3ccccc3)cc2)NC(=O)[C@H](CN2CCOCC2)NC(=O)CSC[C@@H](C(=O)NCC(N)=O)NC1=O [Example 403] ({CH2CO}-[Ala(morpholin-4-yl)][Bip][Bip(4'-NH)](Indazole3carbonyl(1-CH2COOH))[Sar]PD[X18]VPVRLCG-NH2; thioether N-13) | 50 to 200
CC(C)C[C@@H]1NC(=O)[C@H](CCCNC(=N)N)NC(=O)[C@H](C(C)C)NC(=O)C2CCCN2C(=O)[C@H](C(C)C)NC(=O)[C@@H](CCCNC(=N)NCCc2ccc(O)cc2)NC(=O)[C@H](CC(=O)O)NC(=O)[C@@H]2CCCN2C(=O)CN(C)C(=O)[C@H](Cc2ccc(-c3ccc(NC(=O)c4nn(CC(=O)O)c5ccccc45)cc3)cc2)NC(=O)[C@H](Cc2ccc(-c3ccc(C(=O)O)cc3)cc2)NC(=O)[C@H](CN2CCOCC2)NC(=O)CSC[C@@H](C(=O)NCC(N)=O)NC1=O (stereo partly drawn) [Example 404] ({CH2CO}-[Ala(morpholin-4-yl)][Bip(4'-COOH)][Bip(4'-NH)](Indazole3carbonyl(1-CH2COOH))[Sar]PD[X18]V[ξP]VRLCG-NH2; thioether N-13) | 50 to 200
CC(C)C[C@@H]1NC(=O)[C@H](CCCNC(=N)N)NC(=O)[C@H](C(C)C)NC(=O)C2CCCN2C(=O)[C@H](C(C)C)NC(=O)[C@@H](CCCNC(=N)NCCc2cccc(N)c2)NC(=O)[C@H](CC(=O)O)NC(=O)[C@@H]2CCCN2C(=O)CN(C)C(=O)[C@H](Cc2ccc(-c3ccc(NC(=O)c4nn(CC(=O)O)c5ccccc45)cc3)cc2)NC(=O)[C@H](Cc2ccc(-c3ccccc3)cc2)NC(=O)[C@H](CN2CCOCC2)NC(=O)CSC[C@@H](C(=O)NCC(N)=O)NC1=O (stereo partly drawn) [Example 405] ({CH2CO}-[Ala(morpholin-4-yl)][Bip][Bip(4'-NH)](Indazole3carbonyl(1-CH2COOH))[Sar]PD[X58]V[ξP]VRLCG-NH2; thioether N-13) | 50 to 200
CC(C)C[C@@H]1NC(=O)[C@H](CCCNC(=N)N)NC(=O)[C@H](C(C)C)NC(=O)C2CCCN2C(=O)[C@H](C(C)C)NC(=O)[C@@H](CCCNC(=N)NCCc2cccc(N)c2)NC(=O)[C@H](CC(=O)O)NC(=O)[C@@H]2CCCN2C(=O)CN(C)C(=O)[C@H](Cc2ccc(-c3ccc(NC(=O)c4nn(CC(=O)O)c5ccccc45)cc3)cc2)NC(=O)[C@H](Cc2ccc(-c3ccc(C(=O)O)cc3)cc2)NC(=O)[C@H](CN2CCOCC2)NC(=O)CSC[C@@H](C(=O)NCC(N)=O)NC1=O (stereo partly drawn) [Example 406] ({CH2CO}-[Ala(morpholin-4-yl)][Bip(4'-COOH)][Bip(4'-NH)](Indazole3carbonyl(1-CH2COOH))[Sar]PD[X58]V[ξP]VRLCG-NH2; thioether N-13) | 50 to 200
CC(C)C[C@@H]1NC(=O)[C@H](CCCNC(=N)N)NC(=O)[C@H](C(C)C)NC(=O)[C@@H]2CCCN2C(=O)[C@H](C(C)C)NC(=O)[C@@H](CCCNC(=N)NCCc2ccc(N)cc2)NC(=O)[C@H](CC(=O)O)NC(=O)[C@@H]2CCCN2C(=O)CN(C)C(=O)[C@H](Cc2ccc(-c3ccc(NC(=O)c4nn(CC(=O)O)c5ccccc45)cc3)cc2)NC(=O)[C@H](Cc2ccc(-c3ccccc3)cc2)NC(=O)[C@H](CN2CCOCC2)NC(=O)CSC[C@@H](C(=O)NCC(N)=O)NC1=O [Example 407] ({CH2CO}-[Ala(morpholin-4-yl)][Bip][Bip(4'-NH)](Indazole3carbonyl(1-CH2COOH))[Sar]PD[X35]VPVRLCG-NH2; thioether N-13) | 50 to 200
CC(C)C[C@@H]1NC(=O)[C@H](CCCNC(=N)N)NC(=O)[C@H](C(C)C)NC(=O)[C@@H]2CCCN2C(=O)[C@H](C(C)C)NC(=O)[C@@H](CCCNC(=N)NCCc2ccc3c(c2)OCO3)NC(=O)[C@H](CC(=O)O)NC(=O)[C@@H]2CCCN2C(=O)CN(C)C(=O)[C@H](Cc2ccc(-c3ccc(NC(=O)c4nn(CC(=O)O)c5ccccc45)cc3)cc2)NC(=O)[C@H](Cc2ccc(-c3ccccc3)cc2)NC(=O)[C@H](CN2CCOCC2)NC(=O)CSC[C@@H](C(=O)NCC(N)=O)NC1=O [Example 408] ({CH2CO}-[Ala(morpholin-4-yl)][Bip][Bip(4'-NH)](Indazole3carbonyl(1-CH2COOH))[Sar]PD[X27]VPVRLCG-NH2; thioether N-13) | < 50

same assay, conditions: HEK-Blue-CD40L cells, NF-kB-driven secreted alkaline phosphatase reporter; TNFα 0.5 ng/ml; 18 h; read-out: TNF induced HEK-Blue assay IC50 value

Structure (SMILES) | IC50 [nM]
CC(C)C[C@@H]1NC(=O)[C@H](CCCNC(=N)N)NC(=O)[C@H](C(C)C)NC(=O)[C@@H]2CCCN2C(=O)[C@H](C(C)C)NC(=O)[C@@H](CCCNC(=N)NCCCc2cccc(N)c2)NC(=O)[C@H](CC(=O)O)NC(=O)[C@@H]2CCCN2C(=O)CN(C)C(=O)[C@H](Cc2ccc(-c3ccc(NC(=O)c4nn(C)c5ccccc45)cc3)cc2)NC(=O)[C@H](Cc2ccc(-c3ccccc3)cc2)NC(=O)[C@H](CN2CCOCC2)NC(=O)CSC[C@@H](C(=O)NCC(N)=O)NC1=O [Example 394] ({CH2CO}-[Ala(morpholin-4-yl)][Bip][X5][Sar]PD[X4]VPVRLCG-NH2; thioether N-13) | 50 to 200
CC[C@H](C)[C@@H]1NC(=O)[C@@H](CCCNC(=N)N)NC(=O)[C@H](CC(=O)O)NC(=O)[C@H](Cc2cnc[nH]2)NC(=O)CN(C)C(=O)[C@H](Cc2ccc(-c3ccc(NC(=O)c4ccc(OCC(=O)O)cc4)cc3)cc2)NC(=O)[C@H](Cc2ccc(-c3ccc(C(=O)NC)cc3)cc2)NC(=O)[C@H](CC2CCCCC2)NC(=O)CSC[C@@H](C(=O)NCC(N)=O)NC(=O)[C@H](CC(C)C)NC(=O)[C@H](Cc2cnc[nH]2)NC(=O)[C@H](C(C)C)NC(=O)[C@@H]2CCCN2C1=O [Example 395] ({CH2CO}-[Cha][Bip(4'-CONHMe)][Bip(4'-NH)](Benzoyl(4-OCH2COOH))[Sar]HD[dR]IPVHLCG-NH2; thioether N-13) | < 50
CC[C@H](C)[C@@H]1NC(=O)[C@@H](CCCNC(=N)N)NC(=O)[C@H](CC(=O)O)NC(=O)[C@H](Cc2cnc[nH]2)NC(=O)CN(C)C(=O)[C@H](Cc2ccc(-c3ccc(C(=O)NC)cc3)cc2)NC(=O)[C@H](Cc2ccc(-c3ccccc3)cc2)NC(=O)[C@H](CC2CCCCC2)NC(=O)CSC[C@@H](C(=O)NCC(N)=O)NC(=O)[C@H](CC(C)C)NC(=O)[C@H](Cc2cnc[nH]2)NC(=O)[C@H](C(C)C)NC(=O)[C@@H]2CCCN2C1=O [Example 396] ({CH2CO}-[Cha][Bip][Bip(4'-CONHMe)][Sar]HD[dR]IPVHLCG-NH2; thioether N-13) | < 50
CC[C@H](C)[C@@H]1NC(=O)[C@@H](CCCNC(=N)N)NC(=O)[C@H](CC(=O)O)NC(=O)[C@H](Cc2cnc[nH]2)NC(=O)CN(C)C(=O)[C@H](Cc2ccc(-c3ccccc3)cc2)NC(=O)[C@H](Cc2ccc(-c3ccc(C(=O)NC)cc3)cc2)NC(=O)[C@H](CC2CCCCC2)NC(=O)CSC[C@@H](C(=O)NCC(N)=O)NC(=O)[C@H](CC(C)C)NC(=O)[C@H](Cc2cnc[nH]2)NC(=O)[C@H](C(C)C)NC(=O)[C@@H]2CCCN2C1=O [Example 397] ({CH2CO}-[Cha][Bip(4'-CONHMe)][Bip][Sar]HD[dR]IPVHLCG-NH2; thioether N-13) | 50 to 200
CC(C)C[C@@H]1NC(=O)[C@H](CCCNC(=N)N)NC(=O)[C@H](C(C)C)NC(=O)[C@@H]2CCCN2C(=O)[C@H](C(C)C)NC(=O)[C@@H](CCCNC(=N)N)NC(=O)[C@H](CC(=O)O)NC(=O)[C@@H]2CCCN2C(=O)CN(C)C(=O)[C@H](Cc2ccc(-c3ccc(NC(=O)c4ccc5c(ccn5CC(=O)O)c4)cc3)cc2)NC(=O)[C@H](Cc2ccc(-c3ccccc3)cc2)NC(=O)[C@H](CN2CCOCC2)NC(=O)CSC[C@@H](C(=O)NCC(N)=O)NC1=O [Example 398] ({CH2CO}-[Ala(morpholin-4-yl)][Bip][Bip(4'-NH)](X86)[Sar]PD[dR]VPVRLCG-NH2; thioether N-13) | < 50
CC[C@H](C)[C@@H]1NC(=O)[C@@H]2CCCN2C(=O)[C@H]([C@@H](C)CC)NC(=O)[C@@H](CCCNC(=N)N)NC(=O)[C@H](CC(=O)O)NC(=O)[C@H](Cc2ccccc2)NC(=O)CN(C)C(=O)[C@H](Cc2ccc(-c3ccc(CNC(=O)c4cccc(OCC(=O)O)c4)cc3)cc2)NC(=O)[C@H](Cc2ccc(-c3ccccc3)cc2)NC(=O)[C@H](CC2CCCCC2)NC(=O)CSC[C@@H](C(=O)NCC(N)=O)NC(=O)[C@H](CC(C)C)NC(=O)[C@H](Cc2ncc[nH]2)NC1=O [Example 399] ({CH2CO}-[Cha][Bip][X70](Benzoyl(3-OCH2COOH))[Sar]FD[dR]IPI[Ala(imidazol-2-yl)]LCG-NH2; thioether N-13) | 200 to 2000
CC[C@H](C)[C@@H]1NC(=O)[C@@H]2CCCN2C(=O)[C@H]([C@@H](C)CC)NC(=O)[C@@H](CCCNC(=N)N)NC(=O)[C@H](CC(=O)O)NC(=O)[C@H](Cc2ccccc2)NC(=O)CN(C)C(=O)[C@H](Cc2ccc(-c3ccc(CNC(=O)c4nn(C)c5ccccc45)cc3)cc2)NC(=O)[C@H](Cc2ccc(-c3ccccc3)cc2)NC(=O)[C@H](CC2CCCCC2)NC(=O)CSC[C@@H](C(=O)NCC(N)=O)NC(=O)[C@H](CC(C)C)NC(=O)[C@H](Cc2cnc[nH]2)NC1=O [Example 400] ({CH2CO}-[Cha][Bip][X39][Sar]FD[dR]IPIHLCG-NH2; thioether N-13) | 200 to 2000
CC[C@H](C)[C@@H]1NC(=O)[C@@H]2CCCN2C(=O)[C@H]([C@@H](C)CC)NC(=O)[C@@H](CCCNC(=N)N)NC(=O)[C@H](CC(=O)O)NC(=O)[C@H](Cc2ccccc2)NC(=O)CN(C)C(=O)[C@H](Cc2ccc(-c3ccc(NC(=O)c4coc5ccccc45)cc3)cc2)NC(=O)[C@H](Cc2ccc(-c3ccccc3)cc2)NC(=O)[C@H](CC2CCCCC2)NC(=O)CSC[C@@H](C(=O)NCC(N)=O)NC(=O)[C@H](CC(C)C)NC(=O)[C@H](Cc2ncc[nH]2)NC1=O [Example 401] ({CH2CO}-[Cha][Bip][X47][Sar]FD[dR]IPI[Ala(imidazol-2-yl)]LCG-NH2; thioether N-13) | 50 to 200
CC[C@H](C)[C@@H]1NC(=O)[C@@H]2CCCN2C(=O)[C@H]([C@@H](C)CC)NC(=O)[C@@H](CCCNC(=N)N)NC(=O)[C@H](CC(=O)O)NC(=O)[C@H](Cc2ccccc2)NC(=O)CN(C)C(=O)[C@H](Cc2ccc(-c3ccc(NC(=O)c4nn(C)c5ccccc45)cc3)cc2)NC(=O)[C@H](Cc2ccc(-c3ccccc3)cc2)NC(=O)[C@H](CC2CCCCC2)NC(=O)CSC[C@@H](C(=O)NCC(N)=O)NC(=O)[C@H](CC(C)C)NC(=O)[C@H](Cc2ncc[nH]2)NC1=O [Example 402] ({CH2CO}-[Cha][Bip][X5][Sar]FD[dR]IPI[Ala(imidazol-2-yl)]LCG-NH2; thioether N-13) | 50 to 200

Reference: US20250145665A1, “MACROCYCLIC PEPTIDES USEFUL AS MODULATORS OF TNF ALPHA” (Bristol-Myers Squibb Company, priority 2023, published 2025)
